Measured values as given in US11974571B1, “3-5-dinitro-N-(pyrimidin-2-ylcarbamothioyl)benzamide as an eco-friendly insecticidal agent against Spodoptera littoralis (boisd.)” (KING FAISAL UNIVERSITY, priority 2023, dated 2024).
≈ marks a conversion by molar mass, not a printed value. Read-outs that look alike come from different tables or passages of the source.

Test system: Spodoptera littoralis
Test: Insecticidal bioassay screening (castor leaf dip), laboratory strain of cotton leafworm
Type: in vivo
Conditions: for Toxicity index %: 72 hrs, Diflubenzuron's LC50 / the compound's LC50 × 100; for LC50: Spodoptera littoralis, foliar, 72 h
Protocol: Five concentrations (200, 100, 50, 25, 12.5 ppm) were designed for this synthetic compound and the reference Diflubenzuron compound as the dynamic ingredients based on mg/L via diluting the commercial formulation.
[…] Larvae of the second and fourth instars of each checked strain are prepared with treated leaves in gauze-covered glass containers for 72 hrs. An untreated control is made in which leaves are dipped in triton x-100 and distilled water only. Then the preserved leaves were removed & fresh, untreated leaves were provided for 72 hours. Three replicates (10 larvae each) were checked for each concentration. Daily inspection was carried out for all treatments and mortality percentages were recorded 3 days (72 hours) after treatment. The average mortality percentage was corrected employing Abbott's formula. The corrected mortality rate for each of the previously synthesized compounds is statistically calculated according to Finney (1970). Through this rate, the corresponding concentration test lines (LDP lines) are assessed.

[1] = 2nd instar larvae, laboratory strain, after 72 hrs of treatment
[2] = 4th instar larvae, laboratory strain, after 72 hrs of treatment
[3] = read-out: LC50 (mg/L) at 95%, 2nd instar larvae, laboratory strain, after 72 hrs of treatment
[4] = read-out: LC50 (mg/L) at 95%, 4th instar larvae, laboratory strain, after 72 hrs of treatment

Structure (SMILES)	Toxicity index % (2nd instar larvae)	LC90 (mg/L) at 95% [1]	Toxicity index % (4th instar larvae)	LC90 (mg/L) at 95% [2]	LC50 [3]	LC50 [4]	LC50 (mg/L) at 95% [1]
O=C(NC(=O)c1c(F)cccc1F)Nc1ccc(Cl)cc1 [Diflubenzuron, reference compound]	100%	520.0 mg/L (≈ 1670 µM)	100%	1540.5 mg/L (≈ 4960 µM)	45.2 mg/L (≈ 145 µM)	144 mg/L (≈ 464 µM)	–
O=C(NC(=S)Nc1ncccn1)c1cc([N+](=O)[O-])cc([N+](=O)[O-])c1 [Compound 1, 3,5-dinitro-N-(pyrimidin-2-ylcarbamothioyl)benzamide]	23.7%	1713.2 mg/L (≈ 4920 µM)	33.4%	4020.4 mg/L (≈ 11500 µM)	190 mg/L (≈ 546 µM)	~430 mg/L (≈ 1240 µM)	about 190.0 mg/L
